Data on 31 compounds can be found in patent publication US10798941B2, “Microbiocidal oxadiazole derivatives” (SYNGENTA PARTICIPATIONS AG, priority 2016, dated 2020).

Where only a bound is given, the exact number is not on record here.

For this experiment, the system named is Glomerella Lagenarium (Colletotrichum Lagenarium). The experiment is described as follows: Glomerella lagenarium (Colletotrichum lagenarium) liquid culture / cucumber / preventative (anthracnose). The class given is cell-based. To be noted: Colletotrichum orbiculare; 20 ppm in the applied formulation; liquid culture in PDB, 24° C., inhibition of growth measured photometrically 3 to 4 days after application, vs untreated; read-out: disease control. The protocol:
Mycelia fragments or conidia suspensions of a fungus prepared either freshly from liquid cultures of the fungus or from cryogenic storage, are directly mixed into nutrient broth. DMSO solutions of the test compound (max. 10 mg/ml) are diluted with 0.025% Tween20 by a factor of 50 and 10 μl of this solution is pipetted into a microtiter plate (96-well format). The nutrient broth containing the fungal spores/mycelia fragments is then added to give an end concentration of the tested compound. The test plates are incubated in the dark at 24° C. and 96% relative humidity. The inhibition of fungal growth is determined photometrically after 2 to 7 days, depending on the pathosystem, and percent antifungal activity relative to the untreated check is calculated.
Conidia of the fungus from cryogenic storage are directly mixed into nutrient broth (PDB—potato dextrose broth). After placing a (DMSO) solution of test compound into a microtiter plate (96-well format), the nutrient broth containing the fungal spores is added.
The following compounds at 20 ppm in the applied formulation give at least 80% disease control in this test when compared to untreated control under the same conditions, which show extensive disease development.
As to `Cc1ccc2c(C=O)cn(Cc3ccc(-c4noc(C(F)(F)F)n4)cc3)c2c1` [Compound 1.51, 6-methyl-1-[[4-[5-(trifluoromethyl)-1,2,4-oxadiazol-3-yl]phenyl]methyl]indole-3-carbaldehyde], the inhibition of growth at 20 ppm is ≥ 80%. `FC(F)(F)c1nc(-c2ccc(Cn3ccc4ccc(Cl)cc43)cc2)no1` [Compound 1.64, 3-[4-[(6-chloroindol-1-yl)methyl]phenyl]-5-(trifluoromethyl)-1,2,4-oxadiazole]: the inhibition of growth at 20 ppm was ≥ 80%. Then `COC(=O)c1cccc2c1ccn2Cc1ccc(-c2noc(C(F)(F)F)n2)cc1` [Compound 1.66, methyl 1-[[4-[5-(trifluoromethyl)-1,2,4-oxadiazol-3-yl]phenyl]methyl]indole-4-carboxylate], with ≥ 80%; and `COC(=O)c1cc(C(F)(F)F)n(Cc2ccc(-c3noc(C(F)(F)F)n3)cc2)c1C` [Compound 1.68, methyl 2-methyl-5-(trifluoromethyl)-1-[[4-[5-(trifluoromethyl)-1,2,4-oxadiazol-3-yl]phenyl]methyl]pyrrole-3-carboxylate], with ≥ 80%. For `FC(F)(F)c1nc(-c2ccc(Cn3c(Br)nc(Br)c3Br)cc2)no1` [Compound 1.69, 3-[4-[(2,4,5-tribromoimidazol-1-yl)methyl]phenyl]-5-(trifluoromethyl)-1,2,4-oxadiazole] the value was ≥ 80%.

Turning to `Cc1c(C=O)c2ccccc2n1Cc1ccc(-c2noc(C(F)(F)F)n2)cc1` [Compound 1.70, 2-methyl-1-[[4-[5-(trifluoromethyl)-1,2,4-oxadiazol-3-yl]phenyl]methyl]indole-3-carbaldehyde], the inhibition of growth at 20 ppm is ≥ 80%. In the case of `FC(F)(F)c1nc(-c2ccc(Cn3c(Br)nc(Cl)c3Cl)cc2)no1` [Compound 1.72, 3-[4-[(2-bromo-4,5-dichloro-imidazol-1-yl)methyl]phenyl]-5-(trifluoromethyl)-1,2,4-oxadiazole], the inhibition of growth at 20 ppm was ≥ 80%. Then `CCOC(=O)c1nn(Cc2ccc(-c3noc(C(F)(F)F)n3)cc2)cc1-c1ccccc1` [Compound 1.84, ethyl 4-phenyl-1-[[4-[5-(trifluoromethyl) 1,2,4-oxadiazol-3-yl]phenyl]methyl]pyrazole-3-carboxylate], with ≥ 80%; and `Fc1cc2ncn(Cc3ccc(-c4noc(C(F)(F)F)n4)cc3)c2cc1Cl` [Compound 1.92, 3-[4-[(6-chloro-5-fluoro-benzimidazol-1-yl)methyl]phenyl]-5-(trifluoromethyl)-1,2,4-oxadiazole], with ≥ 80%. Then `FC(F)(F)c1nc(-c2ccc(Cn3cncn3)c(C(F)(F)F)c2)no1` [Compound 1.98, 3-[4-(1,2,4-triazol-1-ylmethyl)-3-(trifluoromethyl)phenyl]-5-(trifluoromethyl)-1,2,4-oxadiazole], with ≥ 80%; and `Cc1cc(C)n(Cc2ccc(-c3noc(C(F)(F)F)n3)cc2Cl)n1` [Compound 1.100, 3-[3-chloro-4-[(3,5-dimethylpyrazol-1-yl)methyl]phenyl]-5-(trifluoromethyl)-1,2,4-oxadiazole], with ≥ 80%.

For `FC(F)(F)c1nc(-c2ccc(Cn3cnc(Br)c3)c(C(F)(F)F)c2)no1` [Compound 1.103, 3-[4-[(4-bromoimidazol-1-yl)methyl]-3-(trifluoromethyl)phenyl]-5-(trifluoromethyl)-1,2,4-oxadiazole], the inhibition of growth at 20 ppm was ≥ 80%. As to `COC(=O)c1ncn(Cc2ccc(-c3noc(C(F)(F)F)n3)cc2Cl)c1C(=O)OC` [Compound 1.104, dimethyl 1-[[2-chloro-4-[5-(trifluoromethyl)-1,2,4-oxadiazol-3-yl]phenyl]methyl]imidazole-4,5-dicarboxylate], the inhibition of growth at 20 ppm was ≥ 80%. With `N#Cc1ncn(Cc2ccc(-c3noc(C(F)(F)F)n3)cc2Cl)c1C#N` [Compound 1.106, 1-[[2-chloro-4-[5-(trifluoromethyl)-1,2,4-oxadiazol-3-yl]phenyl]methyl]imidazole-4,5-dicarbonitrile], the inhibition of growth at 20 ppm was ≥ 80%. As for `FC(F)(F)c1nc(-c2ccc(Cn3cnc4ccccc43)c(Cl)c2)no1` [Compound 1.110, 3-[4-(benzimidazol-1-ylmethyl)-3-chloro-phenyl]-5-(trifluoromethyl)-1,2,4-oxadiazole], the inhibition of growth at 20 ppm was ≥ 80%. `FC(F)(F)c1nc(-c2ccc(Cn3cc(Cl)cn3)c(Cl)c2)no1` [Compound 1.111, 3-[3-chloro-4-[(4-chloropyrazol-1-yl)methyl]phenyl]-5-(trifluoromethyl)-1,2,4-oxadiazole]: the inhibition of growth at 20 ppm is ≥ 80%. On to `FC(F)(F)c1nc(-c2ccc(Cn3nnnc3-c3ccc(Cl)cc3)c(Cl)c2)no1` [Compound 1.113, 3-[3-chloro-4-[[5-(4-chlorophenyl)tetrazol-1-yl]methyl]phenyl]-5-(trifluoromethyl)-1,2,4-oxadiazole], for which the inhibition of growth at 20 ppm was ≥ 80%.

Take `FC(F)(F)c1nc(-c2ccc(Cn3cc(I)cn3)c(Cl)c2)no1` [Compound 1.114, 3-[3-chloro-4-[(4-iodopyrazol-1-yl)methyl]phenyl]-5-(trifluoromethyl)-1,2,4-oxadiazole]: the inhibition of growth at 20 ppm is ≥ 80%. As for `FC(F)(F)c1nc(-c2ccc(Cn3cc(Br)cn3)c(Cl)c2)no1` [Compound 1.115, 3-[4-[(4-bromopyrazol-1-yl)methyl]-3-chloro-phenyl]-5-(trifluoromethyl)-1,2,4-oxadiazole], the inhibition of growth at 20 ppm was ≥ 80%.

Take `COc1cc(-c2noc(C(F)(F)F)n2)ccc1Cn1cncc1Br` [Compound 1.116, 3-[4-[(5-bromoimidazol-1-yl)methyl]-3-methoxy-phenyl]-5-(trifluoromethyl)-1,2,4-oxadiazole]: the inhibition of growth at 20 ppm was ≥ 80%. Then `COc1cc(-c2noc(C(F)(F)F)n2)ccc1Cn1cnc(Br)c1` [Compound 1.117, 3-[4-[(4-bromoimidazol-1-yl)methyl]-3-methoxy-phenyl]-5-(trifluoromethyl)-1,2,4-oxadiazole], with ≥ 80%. With `Cc1nn(Cc2ccc(-c3noc(C(F)(F)F)n3)cc2F)c(C)c1Cl` [Compound 1.127, 3-[4-[(4-chloro-3,5-dimethyl-pyrazol-1-yl)methyl]-3-fluoro-phenyl]-5-(trifluoromethyl)-1,2,4-oxadiazole], the inhibition of growth at 20 ppm was ≥ 80%.

With `Fc1cc(-c2noc(C(F)(F)F)n2)ccc1Cn1nnnc1-c1ccc(Cl)cc1` [Compound 1.130, 3-[4-[[5-(4-chlorophenyl)tetrazol-1-yl)methyl]-3-fluoro-phenyl]-5-(trifluoromethyl)-1,2,4-oxadiazole], the inhibition of growth at 20 ppm is ≥ 80%. `COC(=O)c1ncn(Cc2ccc(-c3noc(C(F)(F)F)n3)cn2)n1` [Compound 1.138, methyl 1-[[5-[5-(trifluoromethyl)-1,2,4-oxadiazol-3-yl]-2-pyridyl]methyl]-1,2,4-triazole-3-carboxylate]: the inhibition of growth at 20 ppm is ≥ 80%. Then `Cc1cc(C)n(Cc2ccc(-c3noc(C(F)(F)F)n3)cn2)n1` [Compound 1.140, 3-[6-[(3,5-dimethylpyrazol-1-yl)methyl]-3-pyridyl]-5-(trifluoromethyl)-1,2,4-oxadiazole], with ≥ 80%; and `CCOC(=O)c1ncn(Cc2ccc(-c3noc(C(F)(F)F)n3)cc2)c1-c1ccccc1` [Compound 1.188, ethyl 5-phenyl-1-[[4-[5-(trifluoromethyl)-1,2,4-oxadiazol-3-yl]phenyl]methyl]imidazole-4-carboxylate], with ≥ 80%; and `CCOC(=O)c1c(-c2ccccc2)ncn1Cc1ccc(-c2noc(C(F)(F)F)n2)cc1` [Compound 1.189, ethyl 5-phenyl-3-[[4-[5-(trifluoromethyl)-1,2,4-oxadiazol-3-yl]phenyl]methyl]imidazole-4-carboxylate], with ≥ 80%. For `Cc1nc2cc(C(F)(F)F)ccc2n1Cc1ccc(-c2noc(C(F)(F)F)n2)cc1` [Compound 1.191, 3-[4-[[2-methyl-5-(trifluoromethyl)benzimidazol-1-yl]methyl]phenyl]-5-(trifluoromethyl)-1,2,4-oxadiazole] the value was ≥ 80%; for `Cc1cc(C)n(Cc2ccc(-c3noc(C(F)(F)F)n3)nc2)n1` [Compound 1.284, 3-[5-[(3,5-dimethylpyrazol-1-yl)methyl]-2-pyridyl]-5-(trifluoromethyl)-1,2,4-oxadiazole], ≥ 80%.

Take `C[C@@H]1CN(Cc2ccc(-c3noc(C(F)(F)F)n3)cc2)C[C@H](C)O1` [Compound 1.307, (2R,6S)-2,6-dimethyl-4-[[4-[5-(trifluoromethyl)-1,2,4-oxadiazol-3-yl]phenyl]methyl]morpholine]: the inhibition of growth at 20 ppm was ≥ 80%.

As for `Cc1cc(C)n(CCc2ccc(-c3noc(C(F)(F)F)n3)cc2)n1` [Compound 1.309, 3-[4-[2-(3,5-dimethylpyrazol-1-yl)ethyl]phenyl]-5-(trifluoromethyl)-1,2,4-oxadiazole], the inhibition of growth at 20 ppm is ≥ 80%.
